Structures are written as SMILES.

In assay [1] the target is Human MER (residues 528-999) (Homo sapiens (Human), UniProt Q12866). Put plainly: Human Mer kinase assay, HTRF KinEase (Example C-2). The settings on record: protocol of Example C-2 (other compounds). It is filed as biochemical. The method, boiled down: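 IC50 values from 10 concentrations via 4-parameter logistic fit of […], with DMSO as 100% and 1 μM reference compound as 0% activity. Reaction: MER kinase domain 528-999, 1 ng/well, 40 μM ATP (Km), biotin peptide, 5 mM MgCl2, 1 mM DTT, 3% DMSO, room temperature 60 min; HTRF streptavidin-XL665/Eu-antibody detection.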
Background: Time-resolved FRET reads energy transfer from a long-lived donor to a nearby acceptor.

Assay [2] concerns the target Human MET (residues 956-1390) (Homo sapiens (Human), UniProt P08581). The assay can be described thus: Human Met kinase assay, HTRF KinEase (Example D-2). It is filed as biochemical. As to conditions: protocol of Example D-2 (other compounds); read-out: c-Met IC50. An outline of the steps: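 IC50 values come from a 4-parameter logistic fit of the […] fluorescence ratio, set between DMSO (100%) and reference compound at 1 μM (0%). Reactions held MET 956-1390 at 0.1 ng/well, ATP at Km, biotinylated peptide, 5 mM MgCl2, 1 mM MnCl2, 1 mM DTT and 3% DMSO, and ran 40 min at room temperature before streptavidin-XL665/Eu-antibody detection.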

Assay [3] has as its target Met (phospho-Met, HGF-stimulated PC-3 prostate cancer cells) (Homo sapiens (Human), UniProt P08581). Put plainly: Met autophosphorylation ELISA in PC-3 cells (Example F). The assay is classed as cell-based. The settings on record: cellular activity; Met autophosphorylation ELISA in PC-3 cells; read-out: c-Met IC50. The method, boiled down:
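Sandwich ELISA for phospho-Met (panTyr) in PC-3 lysates. Cells starved 3 h serum-free, compound 1 h (8-pt curve, 0.3% DMSO), HGF 100 ng/mL 10 min. 100% = HGF + DMSO; 0% = HGF + reference inhibitor. IC50 by 4-parameter fit.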
(In general: An ELISA detects its analyte on a solid surface through an enzyme-linked reagent.)

Assay [4] deals with Mer (phospho-Mer, MERTK-transfected 293A cells) (Homo sapiens (Human), UniProt Q12866). The assay can be described thus: Mer autophosphorylation ELISA in transient transfected 293A cells (Example H). The assay is classed as cell-based. As to conditions: cellular activity; Mer autophosphorylation ELISA in transient transfected 293A cells. The method, boiled down:
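Inhibition of cellular Mer autophosphorylation is determined in 293A cells transiently expressing human MERTK after 1 h compound exposure (8 concentrations, serum-free, 0.3% DMSO). Phospho-Mer in clarified lysates is measured by ELISA, with DMSO and reference-inhibitor wells defining the 100% and 0% activity limits.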

Met (phospho-Met, HGF-stimulated PC-3 prostate cancer cells), sequence (P08581 25-1390): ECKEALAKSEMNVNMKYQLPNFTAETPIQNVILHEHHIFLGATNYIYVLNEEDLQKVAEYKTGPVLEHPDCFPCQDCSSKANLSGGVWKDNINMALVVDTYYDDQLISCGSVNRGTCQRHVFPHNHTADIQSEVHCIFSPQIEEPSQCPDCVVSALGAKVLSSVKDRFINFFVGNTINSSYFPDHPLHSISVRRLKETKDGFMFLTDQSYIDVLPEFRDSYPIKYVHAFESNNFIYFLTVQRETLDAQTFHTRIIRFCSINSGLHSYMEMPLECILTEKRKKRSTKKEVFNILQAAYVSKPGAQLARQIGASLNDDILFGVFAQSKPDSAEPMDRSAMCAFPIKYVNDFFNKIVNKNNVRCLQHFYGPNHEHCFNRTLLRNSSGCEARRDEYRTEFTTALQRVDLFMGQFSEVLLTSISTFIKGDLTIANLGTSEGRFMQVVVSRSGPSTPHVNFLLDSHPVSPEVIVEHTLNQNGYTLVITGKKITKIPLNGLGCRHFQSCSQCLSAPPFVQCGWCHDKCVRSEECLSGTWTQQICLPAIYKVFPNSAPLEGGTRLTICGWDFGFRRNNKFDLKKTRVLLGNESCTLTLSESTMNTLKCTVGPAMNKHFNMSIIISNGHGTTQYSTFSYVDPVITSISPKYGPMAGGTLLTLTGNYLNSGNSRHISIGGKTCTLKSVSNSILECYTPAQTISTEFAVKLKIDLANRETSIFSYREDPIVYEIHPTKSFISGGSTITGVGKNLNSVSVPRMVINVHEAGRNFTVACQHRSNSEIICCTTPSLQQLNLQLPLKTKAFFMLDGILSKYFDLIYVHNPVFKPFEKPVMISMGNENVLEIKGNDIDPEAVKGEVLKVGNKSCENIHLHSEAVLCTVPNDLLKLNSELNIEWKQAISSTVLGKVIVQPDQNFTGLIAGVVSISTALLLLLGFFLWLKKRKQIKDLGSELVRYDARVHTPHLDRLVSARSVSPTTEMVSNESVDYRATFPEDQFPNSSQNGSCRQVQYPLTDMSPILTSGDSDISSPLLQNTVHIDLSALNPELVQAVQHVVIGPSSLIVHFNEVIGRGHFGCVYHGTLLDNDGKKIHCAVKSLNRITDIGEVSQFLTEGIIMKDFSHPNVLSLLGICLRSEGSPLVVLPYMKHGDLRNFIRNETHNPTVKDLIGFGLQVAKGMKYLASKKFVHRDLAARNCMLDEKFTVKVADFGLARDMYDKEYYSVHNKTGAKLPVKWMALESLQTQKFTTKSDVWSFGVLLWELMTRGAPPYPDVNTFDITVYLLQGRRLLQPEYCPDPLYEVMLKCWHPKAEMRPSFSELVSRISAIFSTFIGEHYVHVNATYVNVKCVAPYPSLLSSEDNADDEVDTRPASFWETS
Human MET (residues 956-1390), sequence (P08581 956-1390): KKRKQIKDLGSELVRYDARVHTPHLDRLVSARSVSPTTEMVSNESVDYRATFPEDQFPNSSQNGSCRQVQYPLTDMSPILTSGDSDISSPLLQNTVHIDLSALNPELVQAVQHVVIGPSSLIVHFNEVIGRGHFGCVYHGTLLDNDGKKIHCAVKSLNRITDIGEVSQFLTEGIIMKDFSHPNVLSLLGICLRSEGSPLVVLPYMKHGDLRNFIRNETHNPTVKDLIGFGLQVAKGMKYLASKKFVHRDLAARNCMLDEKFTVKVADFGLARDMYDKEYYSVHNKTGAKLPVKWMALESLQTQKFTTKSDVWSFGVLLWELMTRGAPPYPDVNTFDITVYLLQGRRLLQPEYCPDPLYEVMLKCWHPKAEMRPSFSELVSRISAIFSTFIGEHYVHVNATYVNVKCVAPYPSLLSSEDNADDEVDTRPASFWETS
Human MER (residues 528-999), sequence (Q12866 528-999): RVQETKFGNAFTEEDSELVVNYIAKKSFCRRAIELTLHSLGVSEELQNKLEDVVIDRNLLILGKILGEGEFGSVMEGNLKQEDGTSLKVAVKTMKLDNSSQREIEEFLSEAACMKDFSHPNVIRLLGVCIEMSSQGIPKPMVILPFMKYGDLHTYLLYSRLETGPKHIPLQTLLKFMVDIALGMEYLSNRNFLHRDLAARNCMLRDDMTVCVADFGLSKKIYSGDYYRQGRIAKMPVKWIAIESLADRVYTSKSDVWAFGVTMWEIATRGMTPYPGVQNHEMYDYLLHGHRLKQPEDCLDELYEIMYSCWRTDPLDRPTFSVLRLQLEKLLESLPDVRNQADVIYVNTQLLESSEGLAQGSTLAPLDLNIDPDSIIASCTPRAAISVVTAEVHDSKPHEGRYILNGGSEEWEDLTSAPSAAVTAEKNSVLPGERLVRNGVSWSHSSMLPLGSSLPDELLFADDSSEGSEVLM
Mer (phospho-Mer, MERTK-transfected 293A cells), sequence (Q12866 21-999): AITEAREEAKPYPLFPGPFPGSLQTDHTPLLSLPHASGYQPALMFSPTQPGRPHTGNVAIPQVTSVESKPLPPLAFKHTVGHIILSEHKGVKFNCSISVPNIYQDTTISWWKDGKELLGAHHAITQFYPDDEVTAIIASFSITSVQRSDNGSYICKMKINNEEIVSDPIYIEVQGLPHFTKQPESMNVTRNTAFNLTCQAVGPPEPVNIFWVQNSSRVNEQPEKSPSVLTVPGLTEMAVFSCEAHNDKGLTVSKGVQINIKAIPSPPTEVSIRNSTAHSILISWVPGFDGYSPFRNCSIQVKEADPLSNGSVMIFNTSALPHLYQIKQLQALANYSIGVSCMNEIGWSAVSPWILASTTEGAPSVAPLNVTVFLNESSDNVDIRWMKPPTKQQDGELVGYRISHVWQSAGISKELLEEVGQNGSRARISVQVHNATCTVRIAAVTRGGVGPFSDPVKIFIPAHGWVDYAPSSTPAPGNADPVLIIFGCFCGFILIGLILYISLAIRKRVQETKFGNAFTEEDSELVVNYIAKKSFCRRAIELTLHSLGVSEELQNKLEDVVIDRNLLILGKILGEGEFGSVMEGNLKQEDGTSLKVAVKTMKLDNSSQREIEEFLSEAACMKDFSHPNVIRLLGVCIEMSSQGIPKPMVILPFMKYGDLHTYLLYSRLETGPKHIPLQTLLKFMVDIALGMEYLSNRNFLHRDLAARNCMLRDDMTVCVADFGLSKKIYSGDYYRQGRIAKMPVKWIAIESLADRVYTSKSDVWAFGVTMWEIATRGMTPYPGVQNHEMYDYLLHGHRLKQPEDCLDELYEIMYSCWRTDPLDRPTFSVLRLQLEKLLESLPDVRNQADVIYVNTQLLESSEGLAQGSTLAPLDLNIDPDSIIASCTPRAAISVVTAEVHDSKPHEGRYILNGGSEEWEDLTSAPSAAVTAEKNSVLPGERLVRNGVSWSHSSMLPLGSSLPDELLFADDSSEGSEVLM

On to `C=C(C)c1cc(C(=O)Nc2ccc(Oc3ccnc4cc(OC)c(OC)nc34)c(F)c2)c(=O)n(-c2ccc(F)cc2)c1C` [Compound 367, N-[4-[(6,7-dimethoxy-1,5-naphthyridin-4-yl)oxy]-3-fluorophenyl]-1-(4-fluorophenyl)-6-methyl-2-oxo-5-prop-1-en-2-ylpyridine-3-carboxamide], for which the IC50 is below 100 nM in assay [1], 100 to 300 nM in assay [2], below 100 nM in assay [3] and below 100 nM in assay [4].
Take `COc1cnc2c(Oc3ccc(NC(=O)c4nccn(-c5ccc(F)cc5)c4=O)cc3F)ccnc2c1` [Compound 381, N-[3-fluoro-4-[(7-methoxy-1,5-naphthyridin-4-yl)oxy]phenyl]-4-(4-fluorophenyl)-3-oxopyrazine-2-carboxamide]: the IC50 in assay [1], in assay [2], in assay [3] and in assay [4] was below 100 nM throughout.
Take `CCn1cc(C(=O)Nc2ccc(Oc3ccnc4cc(OC)c(OC)nc34)c(F)c2)c(=O)c(-c2ccc(F)cc2)c1CO` [Compound 271, N-[4-[(6,7-Dimethoxy-1,5-naphthyridin-4-yl)oxy]-3-fluorophenyl]-1-ethyl-5-(4-fluorophenyl)-6-(hydroxymethyl)-4-oxopyridine-3-carboxamide]: the IC50 in assay [1], in assay [2], in assay [3] and in assay [4] was below 100 nM each time.
In the case of `COc1cc2nccc(Oc3ccc(NC(=O)c4ccnn(-c5ccc(F)cc5)c4=O)cc3F)c2nc1OC` [Compound 386, N-[4-[(6,7-dimethoxy-1,5-naphthyridin-4-yl)oxy]-3-fluorophenyl]-2-(4-fluorophenyl)-3-oxopyridazine-4-carboxamide], the IC50 in assay [1], in assay [2], in assay [3] and in assay [4] was below 100 nM throughout.
Take `COc1ccc2nccc(Oc3ccc(NC(=O)c4c(C)ccn(-c5ccc(F)cc5)c4=O)cc3F)c2n1` [Compound 287, N-[3-Fluoro-4-[(6-methoxy-1,5-naphthyridin-4-yl)oxy]phenyl]-1-(4-fluorophenyl)-4-methyl-2-oxopyridine-3-carboxamide]: the IC50 in assay [1] is below 100 nM; in assay [2], 100 to 300 nM; in assay [3], below 100 nM; in assay [4], below 100 nM.
Take `COc1cc2nccc(Oc3ccc(NC(=O)c4cn(C)c(C)c(-c5ccc(F)cc5)c4=O)cc3Cl)c2nc1OC` [Compound 388, N-[3-chloro-4-[(6,7-dimethoxy-1,5-naphthyridin-4-yl)oxy]phenyl]-5-(4-fluorophenyl)-1,6-dimethyl-4-oxopyridine-3-carboxamide]: the half-maximal inhibitory concentration (IC50) in assay [1], in assay [2], in assay [3] and in assay [4] was below 100 nM in each case.
`CCn1cc(C(=O)Nc2ccc(Oc3ccnc4cc(OC)c(OC)nc34)cc2)c(=O)c(-c2ccc(F)cc2)c1CO` [Compound 272, N-[4-[(6,7-Dimethoxy-1,5-naphthyridin-4-yl)oxy]phenyl]-1-ethyl-5-(4-fluorophenyl)-6-(hydroxymethyl)-4-oxopyridine-3-carboxamide]: the IC50 in assay [1], in assay [2], in assay [3] and in assay [4] was below 100 nM throughout.
On to `COc1cc2nccc(Oc3ccc(NC(=O)c4c(C)cc(C)n(-c5ccc(F)cc5)c4=O)cc3)c2nc1OC` [Compound 288, N-[4-[(6,7-Dimethoxy-1,5-naphthyridin-4-yl)oxy]phenyl]-1-(4-fluorophenyl)-4,6-dimethyl-2-oxopyridine-3-carboxamide], for which the IC50 in assay [1], in assay [2], in assay [3] and in assay [4] was below 100 nM throughout.
Consider `COc1cnc2c(Oc3ccc(NC(=O)c4cnc(C)n(-c5ccc(F)cc5)c4=O)cc3F)ccnc2c1` [Compound 265, N-[3-Fluoro-4-[(7-methoxy-1,5-naphthyridin-4-yl)oxy]phenyl]-1-(4-fluorophenyl)-2-methyl-6-oxopyrimidine-5-carboxamide], for which the concentration for half-maximal inhibition (IC50) in assay [1], in assay [2], in assay [3] and in assay [4] was below 100 nM in each case.
As to `COc1cc2nccc(Oc3c(F)cc(NC(=O)c4cn(C)c(C)c(-c5ccc(F)cc5)c4=O)cc3F)c2nc1OC` [Compound 392, N-[4-[(6,7-dimethoxy-1,5-naphthyridin-4-yl)oxy]-3,5-difluorophenyl]-5-(4-fluorophenyl)-1,6-dimethyl-4-oxopyridine-3-carboxamide], the IC50 in assay [1], in assay [2], in assay [3] and in assay [4] was below 100 nM in each case.
As for `Cc1ncc(C(=O)Nc2ccc(Oc3ccnc4ccc(OCCN5CCOCC5)nc34)c(F)c2)c(O)c1-c1ccc(F)cc1` [Compound 352, N-[3-fluoro-4-[[6-(2-morpholin-4-ylethoxy)-1,5-naphthyridin-4 yl]oxy]phenyl]-5-(4-fluorophenyl)-4-hydroxy-6-methylpyridine-3-carboxamide], the IC50 in assay [1], in assay [2], in assay [3] and in assay [4] was below 100 nM each time.
As to `Cc1nc(C)c(-c2ccc(F)cc2)c(O)c1C(=O)Nc1ccc(Oc2ccnc3ccc(OCCN(C)C)nc23)c(F)c1` [Compound 354, N-[4-[[6-[2-(dimethylamino)ethoxy]-1,5-naphthyridin-4-yl]oxy]-3-fluorophenyl]-5-(4-fluorophenyl)-4-hydroxy-2,6-dimethylpyridine-3-carboxamide], the IC50 in assay [1], in assay [2], in assay [3] and in assay [4] was below 100 nM in each case.
Consider `COc1cnc2c(Oc3ccc(NC(=O)c4nccn(-c5ccc(F)cc5)c4=O)cc3)ccnc2c1` [Compound 382, 4-(4-fluorophenyl)-N-[4-[(7-methoxy-1,5-naphthyridin-4-yl)oxy]phenyl]-3-oxopyrazine-2-carboxamide], for which the IC50 in assay [1], in assay [2], in assay [3] and in assay [4] was below 100 nM throughout.
On to `COCc1c(-c2ccc(F)cc2)c(=O)c(C(=O)Nc2ccc(Oc3ccnc4cc(OC)c(OC)nc34)c(F)c2)cn1C` [Compound 269, N-[4-[(6,7-Dimethoxy-1,5-naphthyridin-4-yl)oxy]-3-fluorophenyl]-5-(4-fluorophenyl)-6-(methoxymethyl)-1-methyl-4-oxopyridine-3-carboxamide], for which the IC50 in assay [1], in assay [2], in assay [3] and in assay [4] was below 100 nM each time.
With `Cc1ncc(C(=O)Nc2ccc(Oc3ccnc4cc(-c5cnn(C(F)F)c5)ccc34)cc2)c(O)c1-c1ccc(F)cc1` [Compound 377, N-[4-[7-[1-(difluoromethyl)pyrazol-4-yl]quinolin-4-yl]oxyphenyl]-5-(4-fluorophenyl)-4-hydroxy-6-methylpyridine-3-carboxamide], the 50% inhibitory concentration (IC50) in assay [1] is below 100 nM; in assay [2] it was 100 to 300 nM; in assay [3], below 100 nM; in assay [4], below 100 nM.
As to `COc1ccc2nccc(Oc3ccc(NC(=O)c4c(C)cc(C)n(-c5ccc(F)cc5)c4=O)cc3F)c2n1` [Compound 281, N-[3-Fluoro-4-[(6-methoxy-1,5-naphthyridin-4-yl)oxy]phenyl]-1-(4-fluorophenyl)-4,6-dimethyl-2-oxopyridine-3-carboxamide], the 50% inhibitory concentration (IC50) in assay [1], in assay [2], in assay [3] and in assay [4] was below 100 nM throughout.
`COc1cc2nccc(Oc3ccc(NC(=O)C4=C5CCCN5CC(c5ccc(F)cc5)C4=O)cc3F)c2nc1OC` (racemic) [Compound 373, N-[4-[(6,7-dimethoxy-1,5-naphthyridin-4-yl)oxy]-3-fluorophenyl]-6-(4-fluorophenyl)-7-oxo-2,3,5,6-tetrahydro-1H-indolizine-8-carboxamide]: the IC50 in assay [1], in assay [2], in assay [3] and in assay [4] was below 100 nM each time.
On to `COc1cc2nccc(Oc3ccc(NC(=O)c4c(C)cc(C)n(-c5ccc(F)cc5)c4=O)cc3F)c2nc1OC` [Compound 279, N-[4-[(6,7-Dimethoxy-1,5-naphthyridin-4-yl)oxy]-3-fluorophenyl]-1-(4-fluorophenyl)-4,6-dimethyl-2-oxopyridine-3-carboxamide], for which the IC50 in assay [1], in assay [2], in assay [3] and in assay [4] was below 100 nM each time.

As usually defined, the IC50 is the concentration that gives 50% inhibition.
